From patent publication US11787785B2 (NOVARTIS AG, priority 2021, dated 2023) come the findings set out here.

The target in the test is T1, WIZ protein (HiBit-WIZ fusion protein) (Homo sapiens, UniProt O95785+Q96SW2).
T1 construct: expressed in transfected cells
Nature of the test: Quantification of WIZ protein levels in HiBit tag fusion protein assay (WIZ HiBit assay in 293T cells). The format is cell-based. Also on record: remaining activity / Dmax: dose or concentration left out as unconfirmed. The settings on record: for Dmax at 25 µM: 100 − Amax; for Dmax at 25 µM / remaining activity at 25 µM: 293T cells; for remaining activity at 25 µM: DMSO-normalized, curve-fitted percentage of WIZ-HiBit remaining at 25 uM; for DC50: WIZ HiBit assay in 293T cells, 10-point, 5-fold dose response, highest concentration 25 μM, about 18 hours, read-out: WIZ AC50. In a few lines: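 Luminescence after LgBit complementation quantified remaining HiBit-WIZ in lysates of single-copy stable 293T lines. Cells dosed ~18 h at 37 °C with 10-point, 5-fold dilutions (highest 25 μM); DMSO set to 100%, fitted curve gave % remaining at 25 μM (Amax).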
(With HiBiT, luminescence reflects the tagged protein that the partner subunit can reach.)

[1] abbreviates: HEK-293T, read-out: % degradation of WIZ (100 − Amax).

T1 sequence (O95785 whole entry, the tested form may be a part): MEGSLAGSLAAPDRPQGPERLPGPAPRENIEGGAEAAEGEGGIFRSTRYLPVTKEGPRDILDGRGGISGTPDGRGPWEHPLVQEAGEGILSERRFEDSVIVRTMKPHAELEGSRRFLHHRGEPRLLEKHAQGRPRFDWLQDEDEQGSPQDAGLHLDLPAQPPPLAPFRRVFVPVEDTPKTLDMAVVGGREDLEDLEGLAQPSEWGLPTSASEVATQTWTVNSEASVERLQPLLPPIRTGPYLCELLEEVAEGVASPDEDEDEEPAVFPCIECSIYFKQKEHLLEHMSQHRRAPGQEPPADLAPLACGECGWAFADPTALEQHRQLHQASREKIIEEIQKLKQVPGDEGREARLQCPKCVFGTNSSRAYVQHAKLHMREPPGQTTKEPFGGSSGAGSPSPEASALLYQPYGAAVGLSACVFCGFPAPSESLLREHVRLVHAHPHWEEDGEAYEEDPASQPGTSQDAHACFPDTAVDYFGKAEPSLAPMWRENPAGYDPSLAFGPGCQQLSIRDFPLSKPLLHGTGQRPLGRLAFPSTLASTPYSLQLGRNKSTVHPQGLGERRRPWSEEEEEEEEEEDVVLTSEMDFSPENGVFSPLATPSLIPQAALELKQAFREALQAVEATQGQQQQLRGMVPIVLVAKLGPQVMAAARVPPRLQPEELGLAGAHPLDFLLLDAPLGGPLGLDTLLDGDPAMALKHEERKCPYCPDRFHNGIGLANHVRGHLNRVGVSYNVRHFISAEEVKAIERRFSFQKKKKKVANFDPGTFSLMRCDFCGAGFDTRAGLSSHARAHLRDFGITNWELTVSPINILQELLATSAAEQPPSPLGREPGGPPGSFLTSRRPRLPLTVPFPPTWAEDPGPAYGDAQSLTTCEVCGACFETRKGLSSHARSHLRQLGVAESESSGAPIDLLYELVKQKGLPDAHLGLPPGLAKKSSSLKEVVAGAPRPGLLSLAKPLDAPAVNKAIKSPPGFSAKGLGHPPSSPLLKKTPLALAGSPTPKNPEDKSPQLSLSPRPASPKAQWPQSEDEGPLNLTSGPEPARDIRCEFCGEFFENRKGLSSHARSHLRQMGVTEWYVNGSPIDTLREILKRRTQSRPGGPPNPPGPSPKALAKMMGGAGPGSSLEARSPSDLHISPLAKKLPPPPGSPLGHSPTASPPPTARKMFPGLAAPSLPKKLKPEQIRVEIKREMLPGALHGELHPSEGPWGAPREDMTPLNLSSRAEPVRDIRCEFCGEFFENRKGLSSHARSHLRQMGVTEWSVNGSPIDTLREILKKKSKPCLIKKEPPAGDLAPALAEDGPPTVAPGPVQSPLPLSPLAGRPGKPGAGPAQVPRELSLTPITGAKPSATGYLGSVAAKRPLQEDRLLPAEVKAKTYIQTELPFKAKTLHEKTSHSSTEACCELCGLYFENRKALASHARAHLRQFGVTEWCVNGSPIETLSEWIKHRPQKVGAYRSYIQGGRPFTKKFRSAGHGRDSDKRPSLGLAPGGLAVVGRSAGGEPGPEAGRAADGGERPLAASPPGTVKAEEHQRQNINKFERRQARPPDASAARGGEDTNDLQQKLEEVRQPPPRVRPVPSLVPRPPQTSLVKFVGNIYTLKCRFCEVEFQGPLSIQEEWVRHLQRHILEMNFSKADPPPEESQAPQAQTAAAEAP
T1 sequence (Q96SW2 whole entry, the tested form may be a part): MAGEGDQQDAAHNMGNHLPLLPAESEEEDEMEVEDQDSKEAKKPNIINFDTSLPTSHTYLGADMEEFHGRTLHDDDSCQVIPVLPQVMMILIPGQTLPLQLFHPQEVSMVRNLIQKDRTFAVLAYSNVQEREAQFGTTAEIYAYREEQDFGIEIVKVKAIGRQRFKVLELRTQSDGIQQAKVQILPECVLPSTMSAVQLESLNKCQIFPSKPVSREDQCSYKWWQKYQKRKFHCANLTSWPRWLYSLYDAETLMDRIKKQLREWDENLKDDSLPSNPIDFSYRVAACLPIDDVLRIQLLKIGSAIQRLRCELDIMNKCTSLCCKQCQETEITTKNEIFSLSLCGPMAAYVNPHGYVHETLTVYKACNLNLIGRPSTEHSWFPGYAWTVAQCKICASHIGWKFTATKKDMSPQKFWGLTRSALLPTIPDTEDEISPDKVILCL
T1 sequence (Q16531 whole entry partner, the tested form may be a part): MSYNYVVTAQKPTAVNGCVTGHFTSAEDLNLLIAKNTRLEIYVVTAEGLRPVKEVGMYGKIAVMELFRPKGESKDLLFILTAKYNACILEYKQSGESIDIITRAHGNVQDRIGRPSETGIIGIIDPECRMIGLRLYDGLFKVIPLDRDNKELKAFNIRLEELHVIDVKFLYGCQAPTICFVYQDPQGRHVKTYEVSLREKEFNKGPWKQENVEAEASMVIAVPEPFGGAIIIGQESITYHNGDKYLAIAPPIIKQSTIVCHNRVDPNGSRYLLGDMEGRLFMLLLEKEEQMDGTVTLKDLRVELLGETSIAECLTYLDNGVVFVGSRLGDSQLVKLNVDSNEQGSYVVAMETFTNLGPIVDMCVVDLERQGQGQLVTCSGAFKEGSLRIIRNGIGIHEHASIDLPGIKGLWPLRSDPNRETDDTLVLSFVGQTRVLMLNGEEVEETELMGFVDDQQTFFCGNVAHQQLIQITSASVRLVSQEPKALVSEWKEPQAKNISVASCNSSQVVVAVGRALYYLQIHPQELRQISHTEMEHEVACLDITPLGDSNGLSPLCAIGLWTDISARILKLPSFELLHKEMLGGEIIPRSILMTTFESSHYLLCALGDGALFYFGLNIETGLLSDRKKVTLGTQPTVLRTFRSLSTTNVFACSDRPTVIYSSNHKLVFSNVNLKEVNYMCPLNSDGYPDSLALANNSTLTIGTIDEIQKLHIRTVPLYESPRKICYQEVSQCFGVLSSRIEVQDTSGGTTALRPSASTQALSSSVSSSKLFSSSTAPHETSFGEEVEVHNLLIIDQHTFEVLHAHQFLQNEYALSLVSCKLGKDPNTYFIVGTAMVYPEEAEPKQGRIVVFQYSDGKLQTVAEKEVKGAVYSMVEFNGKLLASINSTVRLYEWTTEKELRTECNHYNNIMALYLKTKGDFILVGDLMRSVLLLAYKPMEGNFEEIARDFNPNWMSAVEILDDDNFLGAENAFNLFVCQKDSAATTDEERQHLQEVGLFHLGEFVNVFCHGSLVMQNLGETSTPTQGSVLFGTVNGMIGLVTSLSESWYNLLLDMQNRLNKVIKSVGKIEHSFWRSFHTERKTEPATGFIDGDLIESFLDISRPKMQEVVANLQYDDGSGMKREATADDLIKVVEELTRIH

With `O=C1CCN(c2cnn3ccc(CC4CCN(C(=O)C5CCCCC5)CC4)cc23)C(=O)N1` [Example 99], the DC50 came out at 1830 nM. The Dmax at 25 µM under setting [1] came out at 52%. In addition, under “HEK-293T, read-out: WIZ Amax”, the remaining activity at 25 µM was 48%.

For the compound `C[C@H]1CN(CC2CCCO2)CCN1Cc1ccn2ncc(N3CCC(=O)NC3=O)c2c1` (stereo partly drawn) [Example 225], the DC50 is 1050 nM. The Dmax at 25 µM under setting [1] was found to be 32%. The remaining activity at 25 µM (HEK-293T, read-out: WIZ Amax) was 68%.

In the case of `CC(C)CN1CCC(Cc2ccn3ncc(N4CCC(=O)NC4=O)c3c2)C1` (stereo not drawn) [Example 132], the DC50 amounted to 720 nM. Moreover, the Dmax at 25 µM under setting [1] worked out at 41%. Besides, the remaining activity at 25 µM (HEK-293T, read-out: WIZ Amax) came to 59%.

On to `C[C@H]1C[C@H](Cc2ccn3ncc(N4CCC(=O)NC4=O)c3c2)CCN1CC1CCO1` (stereo partly drawn) [Example 277, 1-(5-(((2S,4R)-2-methyl-1-(oxetan-2-ylmethyl)piperidin-4-yl)methyl)pyrazolo[1,5-a]pyridin-3-yl)dihydropyrimidine-2,4(1H,3H)-dione], for which the DC50 amounted to 203 nM. Moreover, the Dmax at 25 µM under setting [1] worked out at 76%. In addition, under “HEK-293T, read-out: WIZ Amax”, the remaining activity at 25 µM was found to be 24%.

Consider `CCS(=O)(=O)N1CCN(Cc2ccn3ncc(N4CCC(=O)NC4=O)c3c2)C[C@@H]1C` [Example 339, (S)-1-(5-((4-(ethylsulfonyl)-3-methylpiperazin-1-yl)methyl)pyrazolo[1,5-a]pyridin-3-yl)dihydropyrimidine-2,4(1H,3H)-dione], for which the DC50 is 715 nM. Also, the Dmax at 25 µM under setting [1] is 35%. Also, the remaining activity at 25 µM (HEK-293T, read-out: WIZ Amax) worked out at 65%.

For the compound `CC[C@H]1CN(Cc2ccn3ncc(N4CCC(=O)NC4=O)c3c2)CCN1CC1CCOCC1` [Example 227, (S)-1-(5-((3-ethyl-4-((tetrahydro-2H-pyran-4-yl)methyl)piperazin-1-yl)methyl)pyrazolo[1,5-a]pyridin-3-yl)dihydropyrimidine-2,4(1H,3H)-dione], the DC50 was 956 nM. Besides, under setting [1], the Dmax at 25 µM was 60%. The remaining activity at 25 µM (HEK-293T, read-out: WIZ Amax) was 40%.

With `O=C1CCN(c2cnn3ccc(CC4CCN(Cc5ccc(F)cc5)CC4)cc23)C(=O)N1` [Example 23, 1-(5-((1-(4-fluorobenzyl)piperidin-4-yl)methyl)pyrazolo[1,5-a]pyridin-3-yl)dihydropyrimidine-2,4(1H,3H)-dione], the DC50 came to 144 nM. Further, under setting [1], the Dmax at 25 µM is 77%. Further, the remaining activity at 25 µM (HEK-293T, read-out: WIZ Amax) came out at 23%.

On to `C[C@H]1C[C@H](Cc2ccn3ncc(N4CCC(=O)NC4=O)c3c2)CCN1CC1CC(F)(F)C1` [Example 152, 1-(5-(((2S,4R)-1-((3,3-difluorocyclobutyl)methyl)-2-methylpiperidin-4-yl)methyl)pyrazolo[1,5-a]pyridin-3-yl)dihydropyrimidine-2,4(1H,3H)-dione], for which the DC50 was found to be 910 nM. The Dmax at 25 µM under setting [1] was determined as 81%. Also, the remaining activity at 25 µM (HEK-293T, read-out: WIZ Amax) is 19%.

Consider `CC(C)C(=O)N1CCC(Cc2ccn3ncc(N4CCC(=O)NC4=O)c3c2)CC1` [Example 98, 1-(5-((1-isobutyrylpiperidin-4-yl)methyl)pyrazolo[1,5-a]pyridin-3-yl)dihydropyrimidine-2,4(1H,3H)-dione], for which the DC50 came to 587 nM. Moreover, under setting [1], the Dmax came out at 59%. For the same compound, the remaining activity (HEK-293T, read-out: WIZ Amax) came to 41%.

As to `CC(C)(O)CN1CCC(Cc2ccn3ncc(N4CCC(=O)NC4=O)c3c2)CC1` [Example 106, 1-(5-((1-(2-hydroxy-2-methylpropyl)piperidin-4-yl)methyl)pyrazolo[1,5-a]pyridin-3-yl)dihydropyrimidine-2,4(1H,3H)-dione], the DC50 was determined as 283 nM. Further, the Dmax at 25 µM under setting [1] came to 68%. Further, the remaining activity at 25 µM (HEK-293T, read-out: WIZ Amax) came to 32%.

Take `O=C1CCN(c2cnn3ccc(CC4CCN(CC5CCCCC5)C4)cc23)C(=O)N1` (stereo not drawn) [Example 128]: the DC50 is 830 nM. Further, the Dmax at 25 µM under setting [1] turned out to be 29%. Besides, the remaining activity at 25 µM (HEK-293T, read-out: WIZ Amax) came out at 71%.

For `CC(C)(C1CCOCC1)N1CCN(Cc2ccn3ncc(N4CCC(=O)NC4=O)c3c2)CC1` [Example 182, 1-(5-((4-(2-(tetrahydro-2H-pyran-4-yl)propan-2-yl)piperazin-1-yl)methyl)pyrazolo[1,5-a]pyridin-3-yl)dihydropyrimidine-2,4(1H,3H)-dione], the DC50 was found to be 199 nM. Besides, under setting [1], the Dmax at 25 µM was found to be 67%. In addition, for the setting “HEK-293T, read-out: WIZ Amax”, the remaining activity at 25 µM is 33%.

On to `O=C1CCN(c2cnn3ccc(CN4C[C@@H]5C[C@H]4CN5CC4CCCCC4)cc23)C(=O)N1` [Example 236, 1-(5-(((1S,4S)-5-(cyclohexylmethyl)-2,5-diazabicyclo[2.2.1]heptan-2-yl)methyl)pyrazolo[1,5-a]pyridin-3-yl)dihydropyrimidine-2,4(1H,3H)-dione], for which the DC50 is 3200 nM. Further, the Dmax at 25 µM under setting [1] is 5%. Also, the remaining activity at 25 µM (HEK-293T, read-out: WIZ Amax) is 95%.

With `C[C@H]1CN(Cc2ccn3ncc(N4CCC(=O)NC4=O)c3c2)CCN1C[C@H]1CC[C@H](O)CC1` [Example 201, 1-(5-(((S)-4-(((1r,4S)-4-hydroxycyclohexyl)methyl)-3-methylpiperazin-1-yl)methyl)pyrazolo[1,5-a]pyridin-3-yl)dihydropyrimidine-2,4(1H,3H)-dione], the DC50 turned out to be 20 nM. Further, under setting [1], the Dmax at 25 µM stood at 88%. Further, the remaining activity at 25 µM (HEK-293T, read-out: WIZ Amax) was 12%.

Take `COc1cn(-c2cnn3ccc(CN4CCN(CC(C)C)[C@@H](C)C4)cc23)c(=O)[nH]c1=O` [Example 360, (S)-1-(5-((4-isobutyl-3-methylpiperazin-1-yl)methyl)pyrazolo[1,5-a]pyridin-3-yl)-5-methoxypyrimidine-2,4(1H,3H)-dione]: the DC50 was over 25000 nM. Under setting [1], the Dmax at 25 µM was 24%. For the same compound, the remaining activity at 25 µM (HEK-293T, read-out: WIZ Amax) stood at 76%.

Regarding `Cc1ccc(CN2CCC(Cc3ccn4ncc(N5CCC(=O)NC5=O)c4c3)CC2)cc1` [Example 47, 1-(5-((1-(4-methylbenzyl)piperidin-4-yl)methyl)pyrazolo[1,5-a]pyridin-3-yl)dihydropyrimidine-2,4(1H,3H)-dione], the DC50 came out at 157 nM. Moreover, the Dmax at 25 µM under setting [1] came to 69%. Also, the remaining activity at 25 µM (HEK-293T, read-out: WIZ Amax) stood at 31%.

For the compound `O=C1CCN(c2cnn3ccc(CN4C[C@H]5CC[C@@H](C4)N5Cc4cccnc4)cc23)C(=O)N1` [Example 253, 1-(5-(((1R,5S)-8-(pyridin-3-ylmethyl)-3,8-diazabicyclo[3.2.1]octan-3-yl)methyl)pyrazolo[1,5-a]pyridin-3-yl)dihydropyrimidine-2,4(1H,3H)-dione], the DC50 worked out at 531 nM. In addition, the Dmax at 25 µM under setting [1] was found to be 23%. Also, for the setting “HEK-293T, read-out: WIZ Amax”, the remaining activity at 25 µM was determined as 77%.

As to `CC(C)(C)OC(=O)N1CCCC(Cc2ccn3ncc(N4CCC(=O)NC4=O)c3c2)CC1` (stereo not drawn) [Example 270, tert-butyl 4-((3-(2,4-dioxotetrahydropyrimidin-1(2H)-yl)pyrazolo[1,5-a]pyridin-5-yl)methyl)azepane-1-carboxylate], the DC50 was 99 nM. In addition, the Dmax at 25 µM under setting [1] was found to be 57%. For the same compound, the remaining activity at 25 µM (HEK-293T, read-out: WIZ Amax) was determined as 43%.

As to `CC(C)N1CCN(Cc2ccn3ncc(N4CCC(=O)NC4=O)c3c2)CC1` [Example 166], the DC50 amounted to 632 nM. The Dmax at 25 µM under setting [1] is 66%. Further, the remaining activity at 25 µM (HEK-293T, read-out: WIZ Amax) was found to be 34%.

As for `O=C1CCN(c2cnn3ccc(CN4CCN(CC5CCC(F)(F)CC5)CC4)cc23)C(=O)N1` [Example 157], the DC50 amounted to 22 nM. For the same compound, under setting [1], the Dmax at 25 µM turned out to be 83%. Besides, the remaining activity at 25 µM (HEK-293T, read-out: WIZ Amax) was found to be 17%.

Regarding `O=C1CCN(c2cnn3ccc(CC4CCN(C5COC5)CC4)cc23)C(=O)N1` [Example 281, 1-(5-((1-(oxetan-3-yl)piperidin-4-yl)methyl)pyrazolo[1,5-a]pyridin-3-yl)dihydropyrimidine-2,4(1H,3H)-dione], the DC50 is 4 nM. In addition, under setting [1], the Dmax at 25 µM is 83%. The remaining activity at 25 µM (HEK-293T, read-out: WIZ Amax) was 17%.

Consider `CC(C)(C)OC(=O)N1CCC(Cc2ccn3ncc(N4CCC(=O)NC4=O)c3c2)CC1` [Example 97, tert-butyl 4-((3-(2,4-dioxotetrahydropyrimidin-1(2H)-yl)pyrazolo[1,5-a]pyridin-5-yl)methyl)piperidine-1-carboxylate], for which the DC50 turned out to be 24800 nM. In addition, the Dmax at 25 µM under setting [1] is 44%. Where the note is “HEK-293T, read-out: WIZ Amax”, the remaining activity at 25 µM turned out to be 56%.

Take `CC(C)(C1CCC1)N1CCC(Cc2ccn3ncc(N4CCC(=O)NC4=O)c3c2)CC1` [Example 138, 1-(5-((1-(2-cyclobutylpropan-2-yl)piperidin-4-yl)methyl)pyrazolo[1,5-a]pyridin-3-yl)dihydropyrimidine-2,4(1H,3H)-dione]: the DC50 turned out to be 100 nM. Further, under setting [1], the Dmax at 25 µM was 80%. For the same compound, the remaining activity at 25 µM (HEK-293T, read-out: WIZ Amax) stood at 20%.

In the case of `O=C1CCN(c2cnn3ccc(CN4C[C@@H]5C[C@H]4CN5Cc4cccnc4)cc23)C(=O)N1` [Example 237, 1-(5-(((1S,4S)-5-(pyridin-3-ylmethyl)-2,5-diazabicyclo[2.2.1]heptan-2-yl)methyl)pyrazolo[1,5-a]pyridin-3-yl)dihydropyrimidine-2,4(1H,3H)-dione], the DC50 was over 25000 nM. Further, the Dmax at 25 µM under setting [1] came to 6%. Further, the remaining activity at 25 µM (HEK-293T, read-out: WIZ Amax) is 94%.

Consider `CC(C)CN1CCN(C(C)c2ccn3ncc(N4CCC(=O)NC4=O)c3c2)CC1` (stereo not drawn) [Example 345, 1-(5-(1-(4-isobutylpiperazin-1-yl)ethyl)pyrazolo[1,5-a]pyridin-3-yl)dihydropyrimidine-2,4(1H,3H)-dione], for which the DC50 worked out at 191 nM. The Dmax at 25 µM under setting [1] was 73%. The remaining activity at 25 µM (HEK-293T, read-out: WIZ Amax) worked out at 27%.
